Assays:
[1] = test system: MMP1 expression by activated synovial fibroblasts (RASFs); experiment: 'MMP assay': complex trigger-induced MMP1 expression by synovial fibroblasts (MMP1 ELISA); type: cell-based; conditions: Homo sapiens, Fibroblast; complex trigger activated SFs, 48 hrs, FIG. 3; read-out: IC50 value, reduction of MMP1 expression by SFs
Description: A 384-well format ELISA for measurement of MMP1 is developed. Various primary antibodies are tested, as well as various ELISA protocols. The following protocol is developed and validated to measure MMP1 levels in SF supernatant in 384 well plates: white Lumitrac 600 384 well plates (Greiner) are coated with 2 μg/mL anti-MMP1 antibody MAB1346 (Chemicon). The antibody is diluted in buffer 40 (1.21 g Tris base (Sigma), 0.58 g NaCl (Calbiochem) and 5 ml 10% NaN3 (Sigma) in 1 L milliQ water and adjusted to pH 8.5). After overnight incubation at 4° C., plates are washed with PBS (80 g NaCl, 2 g KCl (Sigma), 11.5 g Na2HPO4.7H2O and 2 g KH2PO4 in 10 L milliQ; pH 7.4) and blocked with 100 μL/well Casein buffer (2% Casein (VWR International) in PBS). Next day, casein buffer is removed from ELISA plates and replaced by 50 μL/well EC buffer (4 g casein, 2.13 g Na2HPO4 (Sigma), 2 g bovine albumin (Sigma), 0.69 g NaH2PO4.H2O (Sigma), 0.5 g CHAPS (Roche), 23.3 g NaCl, 4 ml 0,5 M EDTA pH 8 (Invitrogen), 5 ml 10% NaN3 in 1 L milliQ and adjusted to pH 7.0). 0.25 mM DTT (Sigma) is added to the thawed samples plates. After removal of the EC buffer, 20 μL of sample is transferred to the ELISA plates. After overnight incubation at 4° C. plates are washed twice with PBS and once with PBST (PBS with 0.05% Tween-20 (Sigma)) and incubated with 35 μL/well biotinylated anti-MMP1 antibody solution (R&D). This secondary antibody is diluted in buffer C (0.82 g NaH2PO4.H2O, 4.82 g Na2HPO4, 46.6 g NaCl, 20 g bovine albumin and 4 mL 0,5M EDTA pH 8 in 2 L milliQ and adjusted to pH 7.0) at a concentration of 5 μg/mL. After 2 h of incubation at RT, plates are washed as described above and incubated with 50 μL/well streptavidin-HRP conjugate (Biosource). Streptavidin-HRP conjugate is diluted in buffer C at a concentration of 0.25 μg/mL. After 45 min, plates are washed as described above and incubated for 5 min with 50 μL/well BM Chem ELISA Substrate (Roche). Readout is performed on the Luminoscan Ascent Luminometer (Labsystems) with an integration time of 200 msec or with an Envision reader (Perkin Elmer).
The increase of MMP1 expression by SFs upon treatment with cytokines relevant in the field of RA (TNF-α, IL1β and OSM) or a combination thereof is shown in FIG. 2 as white bars. For this experiment, SFs are seeded in 96 well plates, 3,000 cells/well. 24 h later, the medium is changed to M199 medium supplemented with 1% FBS. One day after the medium change, cytokines or combinations thereof are added to the cultures, each cytokine being added to a final concentration of 25 ng/mL. 72 h after cytokine addition, the supernatant is collected and processed in the MMP1 ELISA as described in the protocol given above. In parallel with this experiment, SFs are triggered, using the same protocol, with the supernatant of THP1 cells (2-fold diluted in M199+1% FBS) treated with the same cytokines or combinations of cytokines for 48 h in M199 medium+1% FBS. The induction of the MMP1 expression by SFs triggered with the supernatants of TNF-α-treated THP1 cells is stronger (>4.5 fold induction) as compared to the SFs triggered with recombinant TNF-α alone (3-fold induction) and almost equals the 5-fold induction obtained by a mixture of 3 purified cytokines (TNF-α, IL1βb, OSM). […] As the role of TNF-α in the RA pathogenesis is validated (TNF-α-blockers such as Infliximab and Etanercept show some efficacy in the treatment of RA patients) and the THP-1 cells are representative for monocytes/macrophages present in the joint of RA patients, the TNF-α-based trigger mixture prepared by contacting THP-1 cells with TNF-α will contain factors present in the joints of RA patients and subsequently is relevant to RA. This TNF-α-based complex trigger, further referred to as the ‘complex trigger’, will further be used as basis for the ‘MMP assay’. […]

TNF alpha = experiment: Septic shock model (LPS-induced TNF release); type: in vivo, BALB/cJ female mice; conditions: after injection of LPS, benchmark, FIG. 7
Description: Six BALB/cJ female mice (20 g) per group are treated at the intended dosing once, po. Thirty minutes later, LPS (15 μg/kg; E. coli serotype 0111:B4) is injected ip. Ninety minutes later, mice are euthanized and blood is collected. Circulating TNF alpha levels are determined using commercially available ELISA kits. Dexamethasone (5 μg/kg) is used as a reference anti-inflammatory compound.

Compound: C[C@@H]1C[C@H]2[C@@H]3CCC4=CC(=O)C=C[C@]4(C)[C@@]3(F)[C@@H](O)C[C@]2(C)[C@@]1(O)C(=O)CO [dexamethasone, reference compound]
- IC50 [1]: ~1 nM
- percentage inhibition of TNF alpha release (TNF alpha): 100%
